Source: patent US20050065166A1, “Substituted pyrimidines” (priority 2001, published 2005)

Compound Cc1nc(SCc2ccc(Cl)cc2)nc2c1CCCC2 has a melting point of 48 °C. In the case of Cc1nc([S+]([O-])Cc2ccc(Cl)cc2)nc2c1CCCC2 (stereo not drawn), the melting point is reported as 127 °C. Cc1nc(S(=O)(=O)Cc2ccc(Cl)cc2)nc2c1CCCC2 showed a melting point of 151 °C.
